Like-named read-outs stand apart in the source and are kept apart here.
Key:
adenosine A2B receptor = adenosine A2B receptor (Homo sapiens (Human), UniProt P29275); experiment: Adenosine receptor activity assay (Table 1), A2B activity; assay type: biochemical; conditions: for IC50: read-out: Ave A2B cAMP IC50
adenosine A1 receptor [1] = molecular target: T1, adenosine A1 receptor (Homo sapiens (Human), UniProt P30542); experiment: A1 cAMP IC50 assay (Table 1); assay type: biochemical
adenosine A3 receptor [2] = molecular target: T2, adenosine A3 receptor (Homo sapiens (Human), UniProt P0DMS8); experiment: A3 cAMP IC50 assay (Table 1); assay type: biochemical
T2 sequence (P0DMS8 whole entry): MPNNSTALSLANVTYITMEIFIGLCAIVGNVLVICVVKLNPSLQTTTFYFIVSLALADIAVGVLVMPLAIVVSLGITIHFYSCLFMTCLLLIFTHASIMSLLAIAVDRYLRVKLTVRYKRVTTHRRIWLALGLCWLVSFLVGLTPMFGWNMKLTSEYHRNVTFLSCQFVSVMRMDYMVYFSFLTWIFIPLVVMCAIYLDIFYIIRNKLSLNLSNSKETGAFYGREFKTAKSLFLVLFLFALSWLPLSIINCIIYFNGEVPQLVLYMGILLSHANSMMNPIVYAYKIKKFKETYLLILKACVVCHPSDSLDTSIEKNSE

[3] = Hepatocyte (Hep) intrinsic clearance, rat; assay type: in vitro ADME; conditions: hepatocytes
adenosine A2A receptor = adenosine A2A receptor (Homo sapiens (Human), UniProt P29274); experiment: Adenosine receptor activity assay (Table 1), A2A activity; assay type: biochemical; conditions: read-out: Ave A2A cAMP IC50
adenosine A2A receptor, sequence (P29274 whole entry): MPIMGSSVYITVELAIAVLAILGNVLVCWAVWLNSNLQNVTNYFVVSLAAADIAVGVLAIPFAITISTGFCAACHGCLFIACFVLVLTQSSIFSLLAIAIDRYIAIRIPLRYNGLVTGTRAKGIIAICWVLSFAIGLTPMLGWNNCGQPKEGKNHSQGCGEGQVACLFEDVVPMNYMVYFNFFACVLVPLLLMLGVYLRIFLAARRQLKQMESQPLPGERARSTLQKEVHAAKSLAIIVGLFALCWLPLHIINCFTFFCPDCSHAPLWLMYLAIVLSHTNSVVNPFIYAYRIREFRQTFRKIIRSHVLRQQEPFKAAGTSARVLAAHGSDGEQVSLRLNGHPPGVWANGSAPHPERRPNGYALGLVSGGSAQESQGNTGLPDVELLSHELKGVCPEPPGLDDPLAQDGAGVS

[4] = Hepatocyte (Hep) intrinsic clearance, human; assay type: in vitro ADME; conditions: hepatocytes
adenosine A3 receptor [5] = molecular target: T2, adenosine A3 receptor; experiment: Adenosine receptor activity assay (Table 1), A3 cAMP; assay type: biochemical
adenosine A1 receptor [6] = molecular target: T1, adenosine A1 receptor; experiment: Adenosine receptor activity assay (Table 1), A1 cAMP; assay type: biochemical
[7] = A2A activity to A2B activity (A2A/A2B)
[8] = A2A activity to the A2B activity, A2A/A2B

T1 sequence (P30542 whole entry): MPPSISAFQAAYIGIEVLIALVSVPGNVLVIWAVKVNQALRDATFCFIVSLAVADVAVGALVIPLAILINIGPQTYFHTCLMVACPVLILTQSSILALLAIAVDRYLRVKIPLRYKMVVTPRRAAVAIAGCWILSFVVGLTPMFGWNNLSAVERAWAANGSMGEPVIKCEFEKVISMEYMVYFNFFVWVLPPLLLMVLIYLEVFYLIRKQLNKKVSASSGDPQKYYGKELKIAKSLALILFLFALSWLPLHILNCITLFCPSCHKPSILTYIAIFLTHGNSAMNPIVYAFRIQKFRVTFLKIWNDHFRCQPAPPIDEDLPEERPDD
adenosine A2B receptor, sequence (P29275 whole entry): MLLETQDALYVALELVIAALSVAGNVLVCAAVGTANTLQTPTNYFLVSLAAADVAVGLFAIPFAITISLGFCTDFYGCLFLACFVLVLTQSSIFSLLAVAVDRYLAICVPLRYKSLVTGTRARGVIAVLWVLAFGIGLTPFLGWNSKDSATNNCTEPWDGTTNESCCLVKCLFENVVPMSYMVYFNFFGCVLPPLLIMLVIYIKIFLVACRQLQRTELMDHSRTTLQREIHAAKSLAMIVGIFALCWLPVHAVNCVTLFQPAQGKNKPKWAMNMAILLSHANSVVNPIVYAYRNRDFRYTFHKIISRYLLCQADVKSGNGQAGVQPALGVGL

SMILES	Ratio (adenosine A2B receptor; [7])	IC50 (adenosine A2B receptor)	IC50 (adenosine A1 receptor [1])	IC50 (adenosine A3 receptor [2])	hepatocyte CLint [3]	IC50 (adenosine A2A receptor)	hepatocyte CLint [4]	Ratio (adenosine A2B receptor; [8])	IC50 (adenosine A2B receptor; cAMP)	IC50 (adenosine A3 receptor [5])	IC50 (adenosine A2A receptor; cAMP)	IC50 (adenosine A1 receptor [6])
O=C(NCCO)c1nc(NCc2cc(F)cc(F)c2)nc2ccsc12 [Example Z169, 2-((3,5-Difluorobenzyl)amino)-N-(2-hydroxyethyl)thieno[3,2-d]pyrimidine-4-carboxamide]	26.40	< 10 nM	> 500 nM	> 500 nM	43.7 µL/min/1e6 cells	100 to 500 nM	55.6 µL/min/1e6 cells	–	–	–	–	–
O=C(NC1CCC1)c1nc(NCc2cncc(F)c2)nc2ccsc12 [Example Z171, N-Cyclobutyl-2-(((5-fluoropyridin-3-yl)methyl)amino)thieno[3,2-d]pyrimidine-4-carboxamide]	22.94	< 10 nM	100 to 500 nM	> 500 nM	91.4 µL/min/1e6 cells	50 to 100 nM	51.4 µL/min/1e6 cells	–	–	–	–	–
O=C(NC1CC(O)C1)c1nc(NCc2cncc(F)c2)nc2ccsc12 (stereo not drawn) [Example Z183, 2-(((5-Fluoropyridin-3-yl)methyl)amino)-N-((1s,3s)-3-hydroxycyclobutyl)thieno[3,2-d]pyrimidine-4-carboxamide]	37.09	< 10 nM	> 500 nM	> 500 nM	23.7 µL/min/1e6 cells	100 to 500 nM	24.9 µL/min/1e6 cells	–	–	–	–	–
COC1CN(C(=O)c2nc(N[C@@H](C)c3cncc(F)c3)nc3ccsc23)C1 [Example Z185, (S)-(2-((1-(5-Fluoropyridin-3-yl)ethyl)amino)thieno[3,2-d]pyrimidin-4-yl)(3-methoxyazetidin-1-yl)methanone]	46.14	< 10 nM	> 500 nM	> 500 nM	37 µL/min/1e6 cells	100 to 500 nM	12 µL/min/1e6 cells	–	–	–	–	–
CNc1cc2nc(N[C@@H](C)c3cccnc3)nc(C(=O)N3CC[C@H](O)C3)c2s1 [Example Z188, ((S)-3-Hydroxypyrrolidin-1-yl)(6-(methylamino)-2-(((S)-1-(pyridin-3-yl)ethyl)amino)thieno[3,2-d]pyrimidin-4-yl)methanone]	114.79	10 to 50 nM	> 500 nM	> 500 nM	10 µL/min/1e6 cells	> 500 nM	2.16 µL/min/1e6 cells	–	–	–	–	–
C[C@H](Nc1nc(C(=O)NC[C@@H](C)O)c2sccc2n1)c1cncc(F)c1 [Example Z190, 2-(((S)-1-(5-Fluoropyridin-3-yl)ethyl)amino)-N—((R)-2-hydroxypropyl)thieno[3,2-d]pyrimidine-4-carboxamide]	34.96	< 10 nM	> 500 nM	> 500 nM	23.7 µL/min/1e6 cells	50 to 100 nM	10.1 µL/min/1e6 cells	–	–	–	–	–
C[C@H](O)CNC(=O)c1nc(N[C@@H](C)c2cncc(F)c2)nc2ccsc12 [Example Z191, 2-(((S)-1-(5-Fluoropyridin-3-yl)ethyl)amino)-N—((S)-2-hydroxypropyl)thieno[3,2-d]pyrimidine-4-carboxamide]	45.25	< 10 nM	> 500 nM	> 500 nM	26.7 µL/min/1e6 cells	100 to 500 nM	10.6 µL/min/1e6 cells	–	–	–	–	–
CNc1cc2nc(N[C@@H](C)c3cncc(F)c3)nc(C(=O)N3CC[C@H](O)C3)c2s1 [Example Z197, (2-(((S)-1-(5-Fluoropyridin-3-yl)ethyl)amino)-6-(methylamino)thieno[3,2-d]pyrimidin-4-yl)((S)-3-hydroxypyrrolidin-1-yl)methanone]	298.42	< 10 nM	> 500 nM	> 500 nM	16.2 µL/min/1e6 cells	> 500 nM	3.34 µL/min/1e6 cells	–	–	–	–	–
Cc1cc2nc(N[C@@H](C)c3cncc(F)c3)nc(C(=O)N3CC(NC(=O)[C@H]4CCOC4)C3)c2s1 [Example Z599, (S)—N-(1-(2-(((S)-1-(5-Fluoropyridin-3-yl)ethyl)amino)-6-methylthieno[3,2-d]pyrimidine-4-carbonyl)azetidin-3-yl)tetrahydrofuran-3-carboxamide]	–	–	–	–	–	–	–	1.22	10 to 50 nM	100 to 500 nM	10 to 50 nM	> 500 nM
C[C@H](Nc1nc(C(=O)N2CC(NC(=O)c3ccoc3)C2)c2sccc2n1)c1cncc(F)c1 [Example Z600, (S)—N-(1-(2-((1-(5-Fluoropyridin-3-yl)ethyl)amino)thieno[3,2-d]pyrimidine-4-carbonyl)azetidin-3-yl)furan-3-carboxamide]	–	–	–	–	–	–	–	1.90	< 10 nM	100 to 500 nM	10 to 50 nM	> 500 nM
C[C@H](Nc1nc(C(=O)N2CC(NC(=O)c3ccccc3)C2)c2sccc2n1)c1cncc(F)c1 [Example Z601, (S)—N-(1-(2-((1-(5-Fluoropyridin-3-yl)ethyl)amino)thieno[3,2-d]pyrimidine-4-carbonyl)azetidin-3-yl)benzamide]	–	–	–	–	–	–	–	0.90	10 to 50 nM	100 to 500 nM	10 to 50 nM	> 500 nM
C[C@H](Nc1nc(C(=O)N2CC(NC(=O)C3(C)CC3)C2)c2sccc2n1)c1cncc(F)c1 [Example Z603, (S)—N-(1-(2-((1-(5-Fluoropyridin-3-yl)ethyl)amino)thieno[3,2-d]pyrimidine-4-carbonyl)azetidin-3-yl)-1-methylcyclopropane-1-carboxamide]	–	–	–	–	–	–	–	1.00	< 10 nM	100 to 500 nM	< 10 nM	> 500 nM
C[C@H](Nc1nc(C(=O)N2CC(NC(=O)C34CC(C3)C4)C2)c2sccc2n1)c1cncc(F)c1 [Example Z604, (S)—N-(1-(2-((1-(5-Fluoropyridin-3-yl)ethyl)amino)thieno[3,2-d]pyrimidine-4-carbonyl)azetidin-3-yl)bicyclo[1.1.1]pentane-1-carboxamide]	–	–	–	–	–	–	–	0.88	< 10 nM	100 to 500 nM	< 10 nM	> 500 nM
C[C@H](Nc1nc(C(=O)N2CC(NC(=O)C3CCCC3)C2)c2sccc2n1)c1cncc(F)c1 [Example Z605, (S)—N-(1-(2-((1-(5-Fluoropyridin-3-yl)ethyl)amino)thieno[3,2-d]pyrimidine-4-carbonyl)azetidin-3-yl)cyclopentanecarboxamide]	–	–	–	–	–	–	–	0.77	< 10 nM	100 to 500 nM	< 10 nM	> 500 nM
C[C@H](Nc1nc(C(=O)N2CC(NC(=O)C(C)(C)C(F)(F)F)C2)c2sccc2n1)c1cncc(F)c1 [Example Z606, (S)-3,3,3-Trifluoro-N-(1-(2-((1-(5-fluoropyridin-3-yl)ethyl)amino)thieno[3,2-d]pyrimidine-4-carbonyl)azetidin-3-yl)-2,2-dimethylpropanamide]	–	–	–	–	–	–	–	0.47	< 10 nM	100 to 500 nM	< 10 nM	> 500 nM
C[C@H](Nc1nc(C(=O)N2CC(NC(=O)C3COC3)C2)c2sccc2n1)c1cncc(F)c1 [Example Z607, (S)—N-(1-(2-((1-(5-Fluoropyridin-3-yl)ethyl)amino)thieno[3,2-d]pyrimidine-4-carbonyl)azetidin-3-yl)oxetane-3-carboxamide]	–	–	–	–	–	–	–	4.49	10 to 50 nM	> 500 nM	50 to 100 nM	> 500 nM
